Data published in PMC4520770 (Journal of molecular biology, 2015).
No end group written: not given here.

Assays:
Mcl-1 = Mcl-1 (Homo sapiens, UniProt Q07820); assay: Direct fluorescence anisotropy binding to Mcl-1
KSBcl-2 = KSBcl-2 (Human herpesvirus 8 type P, UniProt F5HGJ3); assay: biochemical; assay type: binding, Kaposi's sarcoma-associated herpesvirus (KSHV)
BHRF1 = BHRF1 (Epstein-Barr virus, UniProt P03182); assay: biochemical; assay type: binding, Epstein-Barr herpesvirus (EBV)
BHRF1, sequence (P03182 whole entry): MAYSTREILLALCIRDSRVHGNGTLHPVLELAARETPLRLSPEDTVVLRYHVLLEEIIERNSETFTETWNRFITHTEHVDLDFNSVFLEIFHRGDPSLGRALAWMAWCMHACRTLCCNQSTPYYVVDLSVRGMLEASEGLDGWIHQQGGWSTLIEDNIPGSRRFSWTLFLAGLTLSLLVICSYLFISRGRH

Mcl-1, sequence (Q07820 whole entry): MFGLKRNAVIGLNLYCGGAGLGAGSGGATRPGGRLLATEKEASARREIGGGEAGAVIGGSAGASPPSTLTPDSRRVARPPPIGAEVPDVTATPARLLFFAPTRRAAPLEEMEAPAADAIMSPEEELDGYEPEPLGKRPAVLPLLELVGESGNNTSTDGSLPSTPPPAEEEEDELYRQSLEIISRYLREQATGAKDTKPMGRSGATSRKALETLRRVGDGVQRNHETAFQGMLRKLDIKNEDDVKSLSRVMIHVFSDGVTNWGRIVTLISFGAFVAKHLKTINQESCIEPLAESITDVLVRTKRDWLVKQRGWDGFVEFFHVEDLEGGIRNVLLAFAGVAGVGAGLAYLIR
KSBcl-2, sequence (F5HGJ3 whole entry): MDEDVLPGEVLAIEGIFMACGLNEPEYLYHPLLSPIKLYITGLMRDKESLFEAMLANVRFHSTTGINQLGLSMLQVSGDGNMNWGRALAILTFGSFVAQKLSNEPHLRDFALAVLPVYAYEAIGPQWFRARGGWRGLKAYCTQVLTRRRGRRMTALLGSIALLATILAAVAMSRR

Substance	Kd (Mcl-1)	Kd (KSBcl-2)	Kd (BHRF1)
RPIIWIGQEISRVGDRENAYKAR-NH2 [BL6-22_Y4eK]	~2200 nM	750 ± 300 nM	30 ± 17 nM
RPNIWLTQRLQRTGDGLNAYYAR-NH2 [KScomp]	510 ± 190 nM	13 ± 7.3 nM	> 1000 nM
RPQIWIHQGLQRLGAGLNAYYAR-NH2 [KL6-7_D3fA]	> 5000 nM	180 ± 80 nM	> 1000 nM
RPQIWIHQGLQRLGDGLNAYKAR-NH2 [KL6-7_Y4eK]	~7800 nM	2.9 ± 1.3 nM	> 1000 nM
